Assay results published in patent US8524917B2, “6-substituted indole-3-carboxylic acid amide compounds having sphingosine-1-phosphate (S1P) receptor antagonist biological activity” (Allergan, Inc., priority 2007, dated 2013).
Where two headings read alike, the source gives them in different places.

Target: human S1P3 receptor (Homo sapiens (Human), UniProt Q99500)
Experiment: Activation or block of activation of human S1P3 receptor, Ca+2 FLIPR assay
Assay type: cell-based
Settings: for IC50: read-out: S1P3 IC50
Method: Compounds were assessed for their ability to activate or block activation of the human S1P3 receptor in T24 cells stably expressing the human S1P3 receptor. Ten thousand cells/well were plated into 384-well poly-D-lysine coated plates one day prior to use. The growth media for the S1P3 receptor expressing cell line was McCoy's 5A medium supplemented with 10% charcoal-treated fetal bovine serum (FBS), 1% antibiotic-antimycotic and 400 μg/ml geneticin. On the day of the experiment, the cells were washed twice with Hank's Balanced Salt Solution supplemented with 20 mM HEPES (HBSS/Hepes buffer). […] Extracellular dye was removed by washing the cell plates four times prior to placing the plates in the FLIPR (Fluorometric Imaging Plate Reader, Molecular Devices). Ligands were diluted in HBSS/Hepes buffer and prepared in 384-well microplates. The positive control, Sphingosine-1-Phosphate (S1P), was diluted in HBSS/Hepes buffer with 4 mg/ml fatty acid free bovine serum albumin. The FLIPR transferred 12.5 μl from the ligand microplate to the cell plate and took fluorescent measurements for 75 seconds, taking readings every second, and then for 2.5 minutes, taking readings every 10 seconds. […] IC50 values were determined through a […] analysis using the Levenburg Marquardt algorithm.

[1] = T24 cells stably expressing the human S1P3 receptor, FLIPR Ca+2 response, 0.61 nM to 10,000 nM
[2] = T24 cells stably expressing the human S1P3 receptor, value in brackets

Sequence of human S1P3 receptor (Q99500 whole entry): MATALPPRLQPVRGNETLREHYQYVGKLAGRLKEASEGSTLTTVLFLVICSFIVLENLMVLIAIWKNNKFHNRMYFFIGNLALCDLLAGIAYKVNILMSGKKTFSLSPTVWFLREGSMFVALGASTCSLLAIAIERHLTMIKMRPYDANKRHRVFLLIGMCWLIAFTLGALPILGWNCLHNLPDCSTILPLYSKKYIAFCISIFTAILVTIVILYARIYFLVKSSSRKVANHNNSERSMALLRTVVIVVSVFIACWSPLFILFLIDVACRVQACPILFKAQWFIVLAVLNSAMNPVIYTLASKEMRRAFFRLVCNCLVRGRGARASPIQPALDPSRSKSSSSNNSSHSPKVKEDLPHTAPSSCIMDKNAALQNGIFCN

Compound: CC(C)C(=O)Oc1ccc2c(C(=O)NCc3ccc(F)c(F)c3)c(C(C)C)n(Cc3ccccc3)c2c1 [Compound 25, 1-Benzyl-3-(3,4-difluorobenzylcarbamoyl)-2-isopropyl-1H-indol-6-yl Isobutyrate]
- S1P3 (% inh): 14 nM (100) %
- IC50: 14 nM

Compound: COCOc1ccc2c(C(=O)NCc3ccc(F)c(F)c3)c(C(C)C)n(Cc3ccccc3)c2c1 [Compound 26, 1-Benzyl-N-(3,4-difluorobenzyl)-2-isopropyl-6-(methoxymethoxy)-1H-indole-3-carboxamide]
- Kb: 13 nM
- S1P3 (% inh): 39 nM (100) 13 nM %
- IC50: 39 nM

Compound: CC(C)c1c(C(=O)NCc2ccc(F)c(F)c2)c2ccc(OC3CCCO3)cc2n1Cc1ccccc1 (centres unmarked) [Compound 27, 1-Benzyl-N-(3,4-difluorobenzyl)-2-isopropyl-6-(tetrahydrofuran-2-yloxy)-1H-indole-3-carboxamide]
- Kb: 11 nM
- S1P3 (% inh): 6 nM (100) 11 nM %
- IC50: 6 nM

Compound: CCOC(=O)c1ccc2c(C(=O)NCc3ccc(F)c(F)c3)c(C(C)C)n(Cc3ccccc3)c2c1 [Compound 43, Ethyl 1-Benzyl-3-(3,4-difluorobenzylcarbamoyl)-2-isopropyl-1H-indole-6-carboxylate]
- IC50 [1]: 7 nM
- Kb (T24 cells stably expressing the human S1P3 receptor, second concentration in the cell, read-out: S1P3 Kb): 8 nM
- S1P3 (% inh) [2]: 100%

Compound: CCOC(=O)c1ccc2c(C(=O)NCc3cncc(F)c3)c(C(C)C)n(Cc3ccccc3)c2c1 [Compound 44, Ethyl 1-Benzyl-3-((5-fluoropyridin-3-yl)methylcarbamoyl)-2-isopropyl-1H-indole-6-carboxylate]
- S1P3 (% inh): 24 nM (100) %
- IC50: 24 nM

Compound: CCOC(=O)c1ccc2c(C(=O)NCc3ccc(F)c(F)c3)c(C(C)C)n(Cc3cccnc3)c2c1 [Compound 46, Ethyl 3-(3,4-Difluorobenzylcarbamoyl)-2-isopropyl-1-(pyridin-3-ylmethyl)-1H-indole-6-carboxylate]
- S1P3 (% inh): 241 nM (100) %
- IC50: 241 nM

Compound: CCOC(=O)c1ccc2c(C(=O)NCc3ccc(F)c(F)c3)c(C(C)C)n(Cc3ncco3)c2c1 [Compound 47, Ethyl 3-(3,4-Difluorobenzylcarbamoyl)-2-isopropyl-1-(oxazol-2-ylmethyl)-1H-indole-6-carboxylate]
- IC50 [1]: 350 nM
- S1P3 (% inh) [2]: 100%

Compound: CCOC(=O)c1ccc2c(C(=O)NCc3cc(F)cc(F)c3)c(C(C)C)n(Cc3ccccn3)c2c1 [Compound 48, Ethyl 3-(3,5-Difluorobenzylcarbamoyl)-2-isopropyl-1-(pyridin-2-ylmethyl)-1H-indole-6-carboxylate]
- IC50 [1]: 24 nM
- S1P3 (% inh) [2]: 100%

Compound: CCOC(=O)c1ccc2c(C(=O)NCc3cncc(F)c3)c(C(C)C)n(Cc3ccccn3)c2c1 [Compound 49, Ethyl 3-((5-Fluoropyridin-3-yl)methylcarbamoyl)-2-isopropyl-1-(pyridin-2-ylmethyl)-1H-indole-6-carboxylate]
- IC50 [1]: 870 nM
- S1P3 (% inh) [2]: 100%

Compound: CCOC(=O)c1ccc2c(C(=O)NCc3ccc(F)cc3)c(C(C)C)n(Cc3ccccn3)c2c1 [Compound 50, Ethyl 3-(4-Fluorobenzylcarbamoyl)-2-isopropyl-1-(pyridin-2-ylmethyl)-1H-indole-6-carboxylate]
- IC50 [1]: 69 nM
- S1P3 (% inh) [2]: 100%

Compound: CC(C)c1c(C(=O)NCc2ccc(F)c(F)c2)c2ccc(CO)cc2n1Cc1ccccc1 [Compound 52, 1-Benzyl-N-(3,4-difluorobenzyl)-6-(hydroxymethyl)-2-isopropyl-1H-indole-3-carboxamide]
- IC50 [1]: 2000 nM
- S1P3 (% inh) [2]: 85%

Compound: CC(C)c1c(C(=O)NCc2ccc(F)c(F)c2)c2ccc(/C=N/O)cc2n1Cc1ccccc1 [Compound 55, (E)-1-Benzyl-N-(3,4-difluorobenzyl)-6-((hydroxyimino)methyl)-2-isopropyl-1H-indole-3-carboxamide]
- IC50 [1]: 234 nM
- S1P3 (% inh) [2]: 100%

Compound: C#CCNC(=O)c1ccc2c(C(=O)NCc3ccc(F)c(F)c3)c(C(C)C)n(Cc3ccccc3)c2c1 [Compound 69, 1-Benzyl-N3-(3,4-difluorobenzyl)-2-isopropyl-N6-(prop-2-ynyl)-1H-indole-3,6-dicarboxamide]
- IC50 [1]: 5000 nM
- S1P3 (% inh) [2]: 98%

Compound: CC(C)c1c(C(=O)NCc2ccc(F)c(F)c2)c2ccc(C3=NCCO3)cc2n1Cc1ccccc1 [Compound 70, 1-Benzyl-N-(3,4-difluorobenzyl)-6-(4,5-dihydrooxazol-2-yl)-2-isopropyl-1H-indole-3-carboxamide]
- S1P3 (% inh): 36 nM (100) %
- IC50: 36 nM

Compound: CC(C)c1c(C(=O)NCc2ccc(F)c(F)c2)c2ccc(C3=NC(C)(C)CO3)cc2n1Cc1ccccc1 [Compound 71, 1-Benzyl-N-(3,4-difluorobenzyl)-6-(4,4-dimethyl-4,5-dihydrooxazol-2-yl)-2-isopropyl-1H-indole-3-carboxamide]
- IC50 [1]: 47 nM
- S1P3 (% inh) [2]: 97%

Compound: CC(C)c1c(C(=O)NCc2cncc(F)c2)c2ccc(C3=N[C@@H](C)CO3)cc2n1Cc1ccccc1 [Compound 72, (S)-1-Benzyl-N-((5-fluoropyridin-3-yl)methyl)-2-isopropyl-6-(4-methyl-4,5-dihydrooxazol-2-yl)-1H-indole-3-carboxamide]
- S1P3 (% inh): 43 nM (99) %
- IC50: 43 nM

Compound: CC[C@H]1COC(c2ccc3c(C(=O)NCc4cncc(F)c4)c(C(C)C)n(Cc4ccccc4)c3c2)=N1 [Compound 73, (S)-1-Benzyl-6-(4-ethyl-4,5-dihydrooxazol-2-yl)-N-((5-fluoropyridin-3-yl)methyl)-2-isopropyl-1H-indole-3-carboxamide]
- IC50 [1]: 35 nM
- S1P3 (% inh) [2]: 100%

Compound: CC(C)c1c(C(=O)NCc2ccc(F)c(F)c2)c2ccc(C3=N[C@H](C)CO3)cc2n1Cc1ccccc1 [Compound 74, (R)-1-Benzyl-N-(3,4-difluorobenzyl)-2-isopropyl-6-(4-methyl-4,5-dihydrooxazol-2-yl)-1H-indole-3-carboxamide]
- IC50 [1]: 49 nM
- S1P3 (% inh) [2]: 99%

Compound: CC[C@H]1COC(c2ccc3c(C(=O)NCc4ccc(F)c(F)c4)c(C(C)C)n(Cc4ccccc4)c3c2)=N1 [Compound 75, (S)-1-Benzyl-N-(3,4-difluorobenzyl)-6-(4-ethyl-4,5-dihydrooxazol-2-yl)-2-isopropyl-1H-indole-3-carboxamide]
- IC50 [1]: 17 nM
- S1P3 (% inh) [2]: 97%

Compound: CC(C)c1c(C(=O)NCc2ccc(F)c(F)c2)c2ccc(C3=N[C@@H](C)CO3)cc2n1Cc1ccccc1 [Compound 76, (S)-1-Benzyl-N-(3,4-difluorobenzyl)-2-isopropyl-6-(4-methyl-4,5-dihydrooxazol-2-yl)-1H-indole-3-carboxamide]
- IC50 [1]: 33 nM
- S1P3 (% inh) [2]: 99%

Compound: COC[C@H]1COC(c2ccc3c(C(=O)NCc4ccc(F)c(F)c4)c(C(C)C)n(Cc4ccccc4)c3c2)=N1 [Compound 77, (S)-1-Benzyl-N-(3,4-difluorobenzyl)-2-isopropyl-6-(4-(methoxymethyl)-4,5-dihydrooxazol-2-yl)-1H-indole-3-carboxamide]
- IC50 [1]: 46 nM
- S1P3 (% inh) [2]: 96%

Compound: CC[C@H]1COC(c2ccc3c(C(=O)NCc4ccc(F)c(F)c4)c(C(C)C)n(Cc4ccccn4)c3c2)=N1 [Compound 80, (S)—N-(3,4-Difluorobenzyl)-6-(4-ethyl-4,5-dihydrooxazol-2-yl)-2-isopropyl-1-(pyridin-2-ylmethyl)-1H-indole-3-carboxamide]
- IC50 [1]: 7 nM
- S1P3 (% inh) [2]: 99%
